# Test results taken from patent US20090023794A1, “Use of Sumoylation Inhibitors for the Treatment of Neurodegenerative Disease” (Caritas St. Elizabeth Medical Center of Boston, Inc., priority 2005, published 2009).
# Legend:
# histone acetylation = experiment: Histone acetylation in CHP-212 cells by western blotting; type: cell-based, human; conditions: data not shown
# [1] = system: tyrosine hydroxylase expression in CHP-212 cells; experiment: Restoration of tyrosine hydroxylase expression by HDAC inhibitors in CHP-212 cells transfected with DJ-1 siRNA (western blot); type: cell-based, human; conditions: for reversal of tyrosine hydroxylase inhibition caused by DJ-1 inactivation (in words): CHP-212 cells transfected with DJ-1 siRNA/RNAi
# Source text: Various acetylated histone species from CHP-212 cells transfected with control or DJ-1 RNAi for 4 days were immunoprecipitated with specific antibodies, and amplified with primers specifically for the human tyrosine hydroxylase promoter using semi-quantitative PCR. Reactions were stopped at indicated PCR cycles for gel analysis. Input: 0.5% of input DNA before IP. The inhibition of endogenous tyrosine hydroxylase and DJ-1 by the DJ-1-specific siRNA for the ChIP assays was confirmed by Western blots. […] after the transfection of control (CTR) or DJ-1 RNAi constructs, CHP-212 cells were treated with increasing amount of sodium butyrate for additional 88 hours before harvesting, with 2 changes of fresh medium containing sodium butyrate during the course of the experiment. […] The protein levels of TH, DJ-1 and β-actin were determined by western blotting.
# To validate the role of histone acetylation in DJ-1-mediated regulation of the human tyrosine hydroxylase promoter, CHP-212 cells were transfected with control or DJ-1-specific siRNA. ChIP assays were performed with antibodies that specifically recognize acetylated histones, and the human tyrosine hydroxylase promoter sequences were amplified using semi-quantitative PCR. Consistent with the concurrent inhibition of the tyrosine hydroxylase protein expression, DJ-1 inactivation caused a decrease in the amount of tyrosine hydroxylase promoter-associated acetylated histones, indicating transcriptional silencing (FIG. 6A). Since DJ-1 acted as a transcriptional co-activator eventually promoting histone acetylation, it was likely that chemical inhibitors of HDAC would reverse the effects of DJ-1 inactivation. Therefore, CHP-212 cells were pre-transfected with control or DJ-1-specific siRNA, and the cells were treated with increasing amounts of the HDAC inhibitor sodium butyrate. Sodium butyrate restored tyrosine hydroxylase expression (to 88% of the levels in the control at 0.2 mM) even in the presence of DJ-1 siRNA (FIG. 6B). […]
Compound,histone acetylation (in words) (histone acetylation),"tyrosine hydroxylase expression restored, relative to the levels in the control ([1]; 0.2 mM, CHP-212 cells in the presence of DJ-1 siRNA, western blot)",reversal of tyrosine hydroxylase inhibition caused by DJ-1 inactivation (in words) [1]
CCCC(=O)[O-].[Na+] [sodium butyrate],increased histone acetylation,88 % of the levels in the control,restoration of tyrosine hydroxylase expression
CC(/C=C/C(=O)NO)=C\[C@@H](C)C(=O)c1ccc(N(C)C)cc1 [trichostatin A],–,–,similarly reversed the tyrosine hydroxylase inhibition
